The text below walks through data of ChEMBL document CHEMBL1142912, “Novel piperazines: potent melanocortin-4 receptor antagonists with anxiolytic-like activity” (Bioorg Med Chem, 2007).

In general, pIC50 refers to the negative decadic logarithm of the IC50, by convention in mol/L. Read a high pIC50 as a low IC50. One may read the IC50 as the concentration at which inhibition is half-maximal. Read a low IC50 as greater potency.

SMILES strings stand for the structures. pIC50: −log10 of the molar value. Active and inactive are the calls of the source. The calls are words filed in the database; no cut-off is given here. Bounds are passed on as bounds.

Assay [1] concerns the target Melanocortin receptor 4 (Homo sapiens, UniProt P32245). In words: Displacement of [125I][Nle4,D-Phe7]alphaMSH from human MC4R expressed in COS7 cells. The class given is cell-based, COS-7. (In general: In a radioligand displacement assay an active substance lowers the binding of a labelled ligand.)
Assay [2] addresses T1, Adrenergic receptor alpha-1 (Rattus norvegicus, UniProt P15823+P23944+P43140).
T1 sequence (P15823 whole entry): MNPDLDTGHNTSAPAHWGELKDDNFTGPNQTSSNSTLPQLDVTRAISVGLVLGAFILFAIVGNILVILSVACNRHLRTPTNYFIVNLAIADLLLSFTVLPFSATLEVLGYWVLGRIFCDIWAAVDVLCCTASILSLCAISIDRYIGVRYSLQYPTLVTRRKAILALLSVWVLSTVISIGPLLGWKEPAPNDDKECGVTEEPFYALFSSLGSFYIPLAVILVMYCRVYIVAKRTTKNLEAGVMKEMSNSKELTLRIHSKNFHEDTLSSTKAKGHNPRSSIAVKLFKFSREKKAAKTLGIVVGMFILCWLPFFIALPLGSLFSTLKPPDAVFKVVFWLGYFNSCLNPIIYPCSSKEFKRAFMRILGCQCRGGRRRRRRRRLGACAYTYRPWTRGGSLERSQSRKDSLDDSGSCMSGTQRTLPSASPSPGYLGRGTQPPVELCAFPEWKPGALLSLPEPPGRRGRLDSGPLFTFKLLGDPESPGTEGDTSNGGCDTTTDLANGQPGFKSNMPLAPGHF
T1 sequence (P23944 whole entry): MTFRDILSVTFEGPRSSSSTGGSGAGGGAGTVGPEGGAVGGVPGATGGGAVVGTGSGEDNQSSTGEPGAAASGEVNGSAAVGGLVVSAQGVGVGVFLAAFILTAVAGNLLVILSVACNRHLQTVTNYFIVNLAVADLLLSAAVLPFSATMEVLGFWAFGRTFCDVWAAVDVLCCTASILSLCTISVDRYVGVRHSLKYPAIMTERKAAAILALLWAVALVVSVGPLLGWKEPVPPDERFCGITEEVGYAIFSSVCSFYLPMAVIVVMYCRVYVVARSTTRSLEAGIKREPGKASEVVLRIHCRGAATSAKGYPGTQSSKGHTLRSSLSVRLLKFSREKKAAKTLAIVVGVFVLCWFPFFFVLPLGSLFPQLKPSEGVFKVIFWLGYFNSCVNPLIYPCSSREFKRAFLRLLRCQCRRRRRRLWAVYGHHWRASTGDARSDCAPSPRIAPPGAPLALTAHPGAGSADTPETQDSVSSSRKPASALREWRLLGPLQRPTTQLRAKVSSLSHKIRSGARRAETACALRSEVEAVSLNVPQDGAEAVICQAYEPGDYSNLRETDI
T1 sequence (P43140 whole entry): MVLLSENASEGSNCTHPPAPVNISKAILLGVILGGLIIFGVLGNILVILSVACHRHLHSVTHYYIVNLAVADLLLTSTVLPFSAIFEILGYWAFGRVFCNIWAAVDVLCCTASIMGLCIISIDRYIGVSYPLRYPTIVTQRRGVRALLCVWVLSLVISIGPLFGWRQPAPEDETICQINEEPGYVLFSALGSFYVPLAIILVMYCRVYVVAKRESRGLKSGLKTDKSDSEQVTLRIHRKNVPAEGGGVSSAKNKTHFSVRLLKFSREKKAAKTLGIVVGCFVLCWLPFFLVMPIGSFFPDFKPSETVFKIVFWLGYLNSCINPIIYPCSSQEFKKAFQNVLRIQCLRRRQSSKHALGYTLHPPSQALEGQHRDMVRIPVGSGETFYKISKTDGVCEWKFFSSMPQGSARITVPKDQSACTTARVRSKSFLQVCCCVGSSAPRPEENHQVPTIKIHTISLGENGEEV
In words: Displacement of [3H]prazosin from Adrenergic alpha-1 receptor in rat cortical membrane. The class given is cell membranes.

Assay [3] deals with Histamine H1 receptor (Rattus norvegicus, UniProt P31390). The assay is described as follows: Displacement of [3H]pyrilamine from histamine H1 receptor in rat brain membrane. The class given is cell membranes.
Sequence of Histamine H1 receptor (P31390 whole entry): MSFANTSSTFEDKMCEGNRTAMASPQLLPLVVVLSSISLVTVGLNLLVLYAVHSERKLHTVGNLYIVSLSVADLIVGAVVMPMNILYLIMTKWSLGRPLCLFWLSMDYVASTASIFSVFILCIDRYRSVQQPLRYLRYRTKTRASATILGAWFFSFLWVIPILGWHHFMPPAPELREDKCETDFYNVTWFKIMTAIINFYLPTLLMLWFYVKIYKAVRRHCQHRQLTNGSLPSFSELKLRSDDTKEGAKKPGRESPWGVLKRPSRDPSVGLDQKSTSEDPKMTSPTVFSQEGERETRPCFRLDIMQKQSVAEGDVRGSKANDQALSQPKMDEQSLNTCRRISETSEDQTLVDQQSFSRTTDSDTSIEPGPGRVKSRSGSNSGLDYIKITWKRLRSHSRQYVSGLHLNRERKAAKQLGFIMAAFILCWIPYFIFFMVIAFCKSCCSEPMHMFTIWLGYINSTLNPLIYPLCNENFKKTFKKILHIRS
The target in assay [4] is D(2) dopamine receptor (Rattus norvegicus, UniProt P61169). In words: Displacement of [3H]raclopride from dopamine receptor D2 in rat striatal membrane. In kind it is cell membranes, Striatum.
Sequence of D(2) dopamine receptor (P61169 whole entry): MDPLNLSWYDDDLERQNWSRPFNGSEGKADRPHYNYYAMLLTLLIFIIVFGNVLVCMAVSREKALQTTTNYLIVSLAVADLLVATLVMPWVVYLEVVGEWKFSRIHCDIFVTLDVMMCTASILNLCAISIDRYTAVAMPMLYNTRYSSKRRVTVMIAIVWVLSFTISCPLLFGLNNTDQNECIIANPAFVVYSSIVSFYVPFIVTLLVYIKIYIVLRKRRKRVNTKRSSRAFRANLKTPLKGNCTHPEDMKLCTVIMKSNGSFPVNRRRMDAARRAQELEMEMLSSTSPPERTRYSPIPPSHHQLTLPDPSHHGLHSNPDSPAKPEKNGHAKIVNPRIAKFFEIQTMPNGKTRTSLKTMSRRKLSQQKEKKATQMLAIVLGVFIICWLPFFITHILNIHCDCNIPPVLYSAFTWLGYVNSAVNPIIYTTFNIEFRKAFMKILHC
In assay [5] the target is Mu-type opioid receptor (Rattus norvegicus, UniProt P33535). In words: Displacement of [3H]DAMGO from mu opioid receptor in rat brain membrane. The class given is cell membranes.
Sequence of Mu-type opioid receptor (P33535 whole entry): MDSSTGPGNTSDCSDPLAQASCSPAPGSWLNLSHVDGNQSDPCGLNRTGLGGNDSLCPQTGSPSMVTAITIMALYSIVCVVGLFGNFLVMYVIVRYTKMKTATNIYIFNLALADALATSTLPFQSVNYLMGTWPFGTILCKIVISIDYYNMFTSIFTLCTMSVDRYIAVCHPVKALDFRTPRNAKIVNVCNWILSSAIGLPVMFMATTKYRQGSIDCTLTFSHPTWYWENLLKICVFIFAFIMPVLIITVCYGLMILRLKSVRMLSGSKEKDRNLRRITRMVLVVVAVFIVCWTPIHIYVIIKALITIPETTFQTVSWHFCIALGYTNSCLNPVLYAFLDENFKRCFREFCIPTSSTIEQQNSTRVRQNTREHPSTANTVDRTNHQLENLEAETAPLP
Assay [6] addresses Delta-type opioid receptor (Rattus norvegicus, UniProt P33533). The assay is described as follows: Displacement of [3H]DPDPE from delta opioid receptor in rat brain membrane. The class given is cell membranes.
Assay [7] concerns the target Sodium-dependent serotonin transporter (Rattus norvegicus, UniProt P31652). The assay is described as follows: Displacement of [3H]paroxetine from serotonin transporter in rat cortical membrane. In kind it is cell membranes.
In assay [8] the target is Norepinephrine transporter (Rattus norvegicus, UniProt Q9WTR4). The assay is described as follows: Displacement of [3H]nisoxetine from NET in rat cortical membrane. The class given is cell membranes.
Sequence of Norepinephrine transporter (Q9WTR4 whole entry): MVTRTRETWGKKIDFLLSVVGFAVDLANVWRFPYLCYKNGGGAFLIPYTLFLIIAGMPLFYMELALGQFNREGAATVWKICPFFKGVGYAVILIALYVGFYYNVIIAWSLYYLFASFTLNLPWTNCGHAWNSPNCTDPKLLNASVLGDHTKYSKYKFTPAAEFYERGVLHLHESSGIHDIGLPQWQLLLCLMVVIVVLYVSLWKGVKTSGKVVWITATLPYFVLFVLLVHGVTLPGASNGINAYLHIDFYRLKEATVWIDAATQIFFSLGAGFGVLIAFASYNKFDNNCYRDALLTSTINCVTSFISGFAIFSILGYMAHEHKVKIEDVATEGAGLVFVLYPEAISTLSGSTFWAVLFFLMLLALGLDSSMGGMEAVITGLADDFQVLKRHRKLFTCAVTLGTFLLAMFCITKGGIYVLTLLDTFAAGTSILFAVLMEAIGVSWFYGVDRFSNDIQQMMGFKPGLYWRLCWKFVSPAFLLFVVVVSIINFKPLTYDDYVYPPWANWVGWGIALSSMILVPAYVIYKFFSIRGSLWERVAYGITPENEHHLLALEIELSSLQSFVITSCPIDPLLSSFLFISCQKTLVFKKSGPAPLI
Assay [9] deals with Rattus norvegicus. The assay is described as follows: Reversal of stress-induced anxiety-like behavior in Sprague-Dawley rat at 1 mg/kg, po. The class given is functional, organism-based. The arrangement: dose 1 mg/kg.

Sequence of Sodium-dependent serotonin transporter (P31652 whole entry): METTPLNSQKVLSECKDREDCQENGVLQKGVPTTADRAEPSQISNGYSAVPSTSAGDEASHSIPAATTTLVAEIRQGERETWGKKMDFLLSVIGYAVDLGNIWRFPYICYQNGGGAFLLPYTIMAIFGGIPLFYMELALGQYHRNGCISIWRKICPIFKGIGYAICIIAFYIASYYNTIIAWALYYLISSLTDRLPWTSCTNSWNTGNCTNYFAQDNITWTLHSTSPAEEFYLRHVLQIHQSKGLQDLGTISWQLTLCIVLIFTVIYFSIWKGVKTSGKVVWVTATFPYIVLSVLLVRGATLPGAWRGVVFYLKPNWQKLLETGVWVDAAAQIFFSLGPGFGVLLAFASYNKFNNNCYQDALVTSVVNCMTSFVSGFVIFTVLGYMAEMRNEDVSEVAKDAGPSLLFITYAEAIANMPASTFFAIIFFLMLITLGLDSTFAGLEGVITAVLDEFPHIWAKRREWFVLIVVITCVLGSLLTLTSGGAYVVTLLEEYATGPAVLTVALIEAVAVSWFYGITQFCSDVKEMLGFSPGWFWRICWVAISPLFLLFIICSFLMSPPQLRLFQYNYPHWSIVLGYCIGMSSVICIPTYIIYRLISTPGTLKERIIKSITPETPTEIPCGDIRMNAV
Sequence of Melanocortin receptor 4 (P32245 whole entry): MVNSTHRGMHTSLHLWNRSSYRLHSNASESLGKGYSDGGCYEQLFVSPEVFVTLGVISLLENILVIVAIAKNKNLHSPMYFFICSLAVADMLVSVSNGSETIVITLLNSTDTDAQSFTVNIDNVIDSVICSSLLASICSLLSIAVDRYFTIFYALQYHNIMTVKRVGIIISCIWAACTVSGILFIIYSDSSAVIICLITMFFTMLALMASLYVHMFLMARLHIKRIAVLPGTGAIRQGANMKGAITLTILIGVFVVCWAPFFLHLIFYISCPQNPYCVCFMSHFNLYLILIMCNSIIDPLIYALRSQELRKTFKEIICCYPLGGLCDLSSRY
Sequence of Delta-type opioid receptor (P33533 whole entry): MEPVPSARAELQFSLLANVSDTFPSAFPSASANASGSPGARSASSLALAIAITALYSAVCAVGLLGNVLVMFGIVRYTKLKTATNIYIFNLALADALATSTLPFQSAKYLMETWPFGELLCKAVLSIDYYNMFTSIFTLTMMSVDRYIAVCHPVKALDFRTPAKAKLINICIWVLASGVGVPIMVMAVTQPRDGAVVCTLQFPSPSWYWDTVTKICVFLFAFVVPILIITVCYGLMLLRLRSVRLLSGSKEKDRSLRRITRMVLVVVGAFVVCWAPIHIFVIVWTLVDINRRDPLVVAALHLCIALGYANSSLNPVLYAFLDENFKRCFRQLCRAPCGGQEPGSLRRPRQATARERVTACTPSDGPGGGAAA

The compound `CC(C)N1CCC(C(CN2CCN(CCCc3ccc(F)cc3-c3ccccc3)CC2)c2ccc(F)cc2)CC1` (racemic) had a pIC50 in assay [1] of 7.28.

As for `CC(C)N1CCC(C(CN2CCN(CCCc3ccccc3-c3ccc(F)cc3)CC2)c2ccc(F)cc2)CC1.Cl` (racemic), the half-maximal inhibitory concentration (IC50) in assay [2] is given as > 1000 nM. For the same compound, the pIC50 was < 6.00 in assay [3]; 6.09 in [4]; < 5.00 in assay [5]; < 5.00 in assay [6]; 7.84 in assay [1]; 5.40 in assay [7]. This compound had a pIC50 in assay [8] of 6.14.

In the case of `CC(C)N1CCC(C(CN2CCN(CCCc3c(F)cccc3-c3ccccc3)CC2)c2ccc(F)cc2)CC1.Cl` (racemic), the IC50 in [2] is listed as > 1000 nM. Besides, the pIC50 is < 6.00 in assay [3]; < 6.00 in assay [4]; < 5.00 in [5]; < 5.00 in [6]; 7.74 in assay [1]; 6.14 in assay [7]. For the same compound, the pIC50 in assay [8] was 6.31.

In assay [1], `CC(C)N1CCC(C(CN2CCN(CCCc3cc(F)ccc3-c3ccccc3)CC2)c2ccc(F)cc2)CC1` (racemic) showed a pIC50 of 7.28.

Consider `CC(C)N1CCC(C(CN2CCN(CCCc3ccccc3-c3ccccc3)CC2)c2ccc(F)cc2)CC1.Cl` (racemic), for which the IC50 in [2] is > 1000 nM. Besides, the pIC50 in assay [3] is < 6.00; in [4], 6.37; in [5], < 5.00; in assay [6] it was < 5.00; in [1] it was 7.71; in assay [7] it was 6.02. In [8], this compound had a negative logarithm of the IC50 (pIC50) of 5.93. The result in [9] was Active.

`CC(C)N1CCC(C(CN2CCN(CCCc3ccccc3-c3ccccc3F)CC2)c2ccc(F)cc2)CC1` (racemic): the pIC50 in assay [1] is 7.01.

As for `CC(C)N1CCC(C(CN2CCN(CCCc3ccccc3-c3cccc(F)c3)CC2)c2ccc(F)cc2)CC1.Cl` (racemic), in assay [2], the IC50 was > 1000 nM. Moreover, the pIC50 is < 6.00 in [3]; 6.09 in assay [4]; < 5.00 in assay [5]; < 5.00 in [6]; 7.63 in assay [1]; 5.67 in assay [7]. In assay [8], this compound had a pIC50 of 6.27.

Turning to `COc1ccc2ccccc2c1CCCCN1CCN(CC(c2ccc(F)cc2)C2CCN(C(C)C)CC2)CC1.Cl` (racemic), in assay [2], the half-inhibitory concentration (IC50) is listed as > 1000 nM. Moreover, the pIC50 is < 6.00 in assay [3]; < 6.00 in assay [4]; < 5.00 in [5]; < 5.00 in assay [6]; 7.39 in assay [1]; 6.06 in assay [7]. The same compound had a pIC50 in assay [8] of 5.55.

Consider `CN1CCC(C(CN2CCN(CCCCc3cccc4ccccc34)CC2)c2ccc(F)cc2)CC1` (racemic), for which the pIC50 in [1] is 6.48.

As to `CC(C)N1CCC(C(CN2CCN(CCCc3cccc(F)c3-c3ccccc3)CC2)c2ccc(F)cc2)CC1.Cl` (racemic), the IC50 in assay [2] is recorded as > 1000 nM. Also, the pIC50 in assay [3] is < 6.00; in assay [4], 6.32; in [5] it was < 5.00; in [6], < 5.00; in [1] it was 7.70; in [7] it was 5.50. In addition, the negative logarithm of the IC50 (pIC50) in assay [8] is 5.40. The outcome in assay [9] was Active.
